Patent US20040259794A1 (priority 1999, published 2004)

System: Hartley guinea pigs
Conditions: guinea pig, in vivo

| SMILES | Duration, time for full recovery |
| --- | --- |
| CCCCN1CCCCC1C(=O)Nc1c(C)cccc1C (centres unmarked) [bupivacaine] | ~90 min |
| CCN(CC)CC(=O)Nc1c(C)cccc1C [lidocaine] | ≈ 30 minutes |
